Here are results for one compound from paper PMC10687071 (The Journal of Biological Chemistry, 2023).

The structures appear in SMILES notation. Substitutions are numbered along the chain they refer to.

The target in experiment [1] is T1, Y71G mutant EAG1 channels (Mus musculus, UniProt Q60603, Y71G).
T1 construct: expressed in transfected cells; host or cells: Xenopus laevis oocytes injected with cRNA
T1 sequence (Q60603 1-989 Y71G): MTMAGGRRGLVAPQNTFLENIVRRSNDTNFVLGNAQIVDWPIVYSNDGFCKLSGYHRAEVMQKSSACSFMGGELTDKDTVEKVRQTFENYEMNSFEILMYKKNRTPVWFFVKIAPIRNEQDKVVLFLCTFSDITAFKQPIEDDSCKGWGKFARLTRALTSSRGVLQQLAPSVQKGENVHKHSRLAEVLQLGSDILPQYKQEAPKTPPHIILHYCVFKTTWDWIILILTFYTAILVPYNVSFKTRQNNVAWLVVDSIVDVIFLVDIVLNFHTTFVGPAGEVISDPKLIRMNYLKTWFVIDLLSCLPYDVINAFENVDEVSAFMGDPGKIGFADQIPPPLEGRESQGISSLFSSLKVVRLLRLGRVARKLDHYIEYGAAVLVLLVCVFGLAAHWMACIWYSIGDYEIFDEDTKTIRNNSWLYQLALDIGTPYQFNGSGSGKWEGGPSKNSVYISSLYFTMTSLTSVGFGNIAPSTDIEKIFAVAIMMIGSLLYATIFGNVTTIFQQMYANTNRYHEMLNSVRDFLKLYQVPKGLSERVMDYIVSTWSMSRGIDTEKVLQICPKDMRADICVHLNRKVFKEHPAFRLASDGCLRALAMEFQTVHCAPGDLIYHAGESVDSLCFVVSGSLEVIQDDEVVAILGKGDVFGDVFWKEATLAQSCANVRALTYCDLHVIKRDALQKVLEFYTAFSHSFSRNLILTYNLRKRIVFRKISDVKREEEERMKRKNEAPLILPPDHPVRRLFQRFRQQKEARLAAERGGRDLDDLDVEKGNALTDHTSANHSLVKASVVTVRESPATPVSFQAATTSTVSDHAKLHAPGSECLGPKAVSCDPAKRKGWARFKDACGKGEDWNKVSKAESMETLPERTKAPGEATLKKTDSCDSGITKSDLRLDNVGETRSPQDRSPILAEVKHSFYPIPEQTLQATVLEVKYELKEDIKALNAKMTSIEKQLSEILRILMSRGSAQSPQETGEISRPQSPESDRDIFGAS
Kind of experiment: TEVC recording, imipramine inhibition, Y71G mutant. Type of experiment: cell-based. To be noted: Y71G mutant EAG1 channel, +50 mV. The text has this: (§1) The cDNA encoding wild-type (WT) mouse EAG1 channels in pGH19 vector was kindly provided by G. Robertson (University of Wisconsin-Madison, Madison, WI). The mutant ΔPAS EAG1 channel in pGH19 with the deletion of the PAS domain residues 2 to 130 was generated by Bio Basic Inc and verified by DNA sequencing (Genewiz). Mutant EAG1 channels with single amino acid substitutions were generated by Genewiz and verified by DNA sequencing. cRNA was transcribed using the T7 mMessage mMachine kit (Thermo Fisher Scientific). Defolliculated Xenopus laevis oocytes were purchased from Ecocyte Bioscience or Xenopus1 and injected with the cRNA using a Nanoinject II oocyte injector (Drummond).
(§2) For EAG1 current recordings, oocytes were placed into a handmade chamber containing a bath solution for the current recording. The currents were recorded using a TEVC technique with OC-725C amplifier (Warner Instruments) and pClamp11 software (Molecular Devices). The signals were digitized using Digidata 1550 (Molecular Devices). Patch pipettes were pulled from borosilicate glass and had resistances of 0.7 to 1.5 MΩ. The recording (bath) solution contained 96 mM NaCl, 4 mM KCl, 0.1 mM CaCl2, 1.8 mM MgCl2, and 5 mM HEPES, pH 7.5. The pipette solution contained 3 M KCl. […]

For experiment [2], the target named is T2, F130G mutant EAG1 channels (Mus musculus, UniProt Q60603, F130G).
T2 construct: expressed in transfected cells; host or cells: Xenopus laevis oocytes injected with cRNA
T2 sequence (Q60603 1-989 F130G): T1 sequence (Q60603 1-989 Y71G) with G71Y, F130G
Briefly: TEVC recording, imipramine inhibition, F130G mutant. To be noted: F130G mutant EAG1 channel, +50 mV. Type of experiment: cell-based.
Excerpt: as §1, §2

In the case of `CN(C)CCCN1c2ccccc2CCc2ccccc21` [imipramine], the IC50 in experiment [1] is 26.7 ± 3.2 µM; in experiment [2], 52.8 ± 5 µM.

The term IC50 denotes the concentration that gives 50% inhibition.
